Reference: article PMC10045483, “Comparative Pharmacokinetic Study of 5 Active Ingredients after Oral Administration of Zuogui Pill in Osteoporotic Rats with Different Syndrome Types” (International Journal of Analytical Chemistry, 2023)
Like-named read-outs stand apart in the source and are kept apart here.

What was measured:
[1] = Stability of analytes in rat plasma (QC samples) under storage conditions; conditions: n = 5; for Stability, Room temperature for 4 h, Mean: 25°C; for Stability, Three freeze-thaw cycles, Mean: −20°C to 25°C
Experimental: QC samples at three levels using five replicates were used to evaluate the stability under the following conditions: 4 h at room temperature (25°C), 24 h in autosampler (4°C), and three freeze-thaw cycles (−20°C to 25°C).

[2] = Pharmacokinetic study of 5 compounds in rat plasma after oral administration of Zuogui Pill extract (HPLC-MS/MS, noncompartmental analysis); type: in vivo, Female Sprague-Dawley rats; conditions: oral Zuogui Pill extract 1.5 mL/100 g; for Cmax / Tmax / half-life / CL/F / MRT last / MRT inf: female, Sprague-Dawley, rat, po, 1.5 mL/100 g; for Cmax / Tmax / half-life / AUC0–t / AUC0–∞ / t 1/2: n = 6; for CL/F: n = 6, read-out: CL_F_obs (converted); for MRT last: n = 6, read-out: MRT0–t; for MRT inf: n = 6, read-out: MRT0–∞
Experimental: Female Sprague-Dawley rats (180–220 g) were purchased from Shanghai Laboratory Animal Centre (Shanghai, China). The rats were maintained in a standard environment (22 ± 1°C, 60 ± 10% relative humidity, and a 12 h light/dark cycle) for one week to acclimate and fed water and food ad libitum. Twenty-four rats were divided randomly into […] and treated through ovary enucleation to establish the model of osteoporosis. Ten weeks after operation, osteoporosis models of kidney-yang-deficiency and kidney-yin-deficiency were established by intramuscular injection of hydrocortisone (25 mg/kg) and intragastric administration of thyroxine suspension (160 mg/kg) for 10 days, respectively. The femur of two rats from each group was then stained with hematoxylin and eosin (H&E) to assess histopathological change. Also, the validation of osteoporosis kidney-yang-deficiency and kidney-yin-deficiency models was judged by detecting the level of cyclic adenosine monophosphate (cAMP) and cyclic guanosine monophosphate (cGMP) in rat plasma. Laboratory Animal Management and Ethics Committee of Zhejiang Chinese Medical University approved all animal treatments (ZSLL-2014-48).
One hundred microliters of plasma was mixed with 100 μL of the IS solution, followed by 700 μL of methanol:acetonitrile (1 : 1). After 2 min of vortex mixing, the mixture was spun for 15 min at 8000 rpm and 4°C. The supernatants were collected and dried in a high-purity N2 environment. The residues were redissolved in 100 μL methanol and centrifuged for 15 min at 13000 rpm and 4°C. Finally, an aliquot of 10 μL supernatants was used to conduct the analysis.
Four groups of rats were orally administered with Zuogui Pill extract at a dose of 1.5 mL/100 g. Then, 0.3 mL blood samples were collected from orbital veins at 0, 0.08, 0.17, 0.25, 0.5, 1, 2, 4, 6, 8, 12, and 24 h after administration, placed in an anticoagulant tube, and centrifuged for 15 min at 5000 rpm and 4°C. The plasma was prepared and stored at −20°C until analysis.
Phoenix WinNonlin 6.4 software was used to estimate pharmacokinetic parameters using noncompartmental analysis. Furthermore, SPSS 26 software was used to compute comparisons of the pharmacokinetic data among the four groups according to a one-way ANOVA. The results are presented as mean ± SD.

[3] = high QC (800, 16000, 3200, 400, 40 ng/mL in the same order)
[4] = low QC (2, 40, 8, 1, 0.1 ng/mL for chlorogenic acid, loganin, morroniside, aucubin, protocatechuic aldehyde)
[5] = middle QC (40, 800, 160, 20, 2 ng/mL in the same order)
[6] = osteoporosis rats (ovariectomized)
[7] = osteoporotic rats with kidney-yang-deficiency
[8] = osteoporotic rats with kidney-yin-deficiency

With `OCC1=C[C@@H](O)[C@@H]2C=CO[C@@H](O[C@@H]3O[C@H](CO)[C@@H](O)[C@H](O)[C@H]3O)[C@H]12` [Aucubin, aucubin] the “Stability, Room temperature for 4 h, Mean” value (“Stability, Room temperature” below) [1, 3] was 92.8%, the “Stability, Room temperature” value [1, 4] was 89.8% and the “Stability, Room temperature” value [1, 5] was 91.3%. For the same compound, the “Stability, Autosampler at 4°C for 24 h, Mean” value (“Stability, Autosampler at 4°C” for short) [1, 3] was 90.2%, the “Stability, Autosampler at 4°C” value [1, 4] was 88.6% and the “Stability, Autosampler at 4°C” value [1, 5] was 92.5%. The “Stability, Three freeze-thaw cycles, Mean” value [1, 3] was 89.1%, the “Stability, Three freeze-thaw cycles, Mean” value [1, 4] was 84.2% and the “Stability, Three freeze-thaw cycles, Mean” value [1, 5] was 86.9%. The Cmax ([2]; normal rats) was 84.4 ± 32.2 ng/mL, the Tmax ([2]; normal rats) was 0.38 ± 0.14 h and the half-life ([2]; normal rats) was 5.97 ± 2.89 h. It also gave a CL/F ([2]; normal rats) of 22.6 mL/min/kg, an MRT last ([2]; normal rats) of 5.38 ± 2.01 h and an MRT inf ([2]; normal rats) of 8.58 ± 2.71 h. The Cmax [2, 6] was 103 ± 23.6 ng/mL, the Tmax [2, 6] was 0.17 h and the half-life [2, 6] was 3.67 ± 0.78 h. The CL/F [2, 6] was 26.5 mL/min/kg, the MRT last [2, 6] was 3.06 ± 0.12 h and the MRT inf [2, 6] was 5.62 ± 1.09 h. For the same compound, the Cmax [2, 7] was 96 ± 24.2 ng/mL, the Tmax [2, 7] was 0.25 h and the half-life [2, 7] was 7.4 ± 1.68 h. The CL/F [2, 7] was 38.8 mL/min/kg, the MRT last [2, 7] was 2.95 ± 0.38 h and the MRT inf [2, 7] was 11.7 ± 1.31 h. It also gave a Cmax [2, 8] of 181 ± 30.7 ng/mL, a Tmax [2, 8] of 0.25 h and a half-life [2, 8] of 8.68 ± 2.92 h. It also gave a CL/F [2, 8] of 16 mL/min/kg, an MRT last [2, 8] of 7.32 ± 1.92 h and an MRT inf [2, 8] of 14.1 ± 5.85 h. For the same compound, the “AUC0–t” value ([2]; normal rats) was 170.50 ± 64.82 h∗ng/mL, the “AUC0–∞” value ([2]; normal rats) was 204.69 ± 68.61 h∗ng/mL and the “AUC0–t” value [2, 6] was 116.40 ± 11.00 h∗ng/mL. The “AUC0–∞” value [2, 6] was 155.64 ± 24.54 h∗ng/mL, the “AUC0–t” value [2, 7] was 48.33 ± 14.05^∗∗ h∗ng/mL and the “AUC0–∞” value [2, 7] was 111.33 ± 29.94 h∗ng/mL. The “AUC0–t” value [2, 8] was 201.40 ± 32.43^∗∗ h∗ng/mL and the “AUC0–∞” value [2, 8] was 272.67 ± 70.63^∗∗ h∗ng/mL.
With `O=C(/C=C/c1ccc(O)c(O)c1)O[C@@H]1C[C@](O)(C(=O)O)C[C@@H](O)[C@H]1O` [Chlorogenic acid, chlorogenic acid] the “Stability, Room temperature” value [1, 3] was 85.7%, the “Stability, Room temperature” value [1, 5] was 85.9% and the “Stability, Autosampler at 4°C” value [1, 3] was 87.3%. The “Stability, Autosampler at 4°C” value [1, 5] was 93.7%, the “Stability, Three freeze-thaw cycles, Mean” value [1, 3] was 80.9% and the “Stability, Three freeze-thaw cycles, Mean” value [1, 5] was 89.3%. It also gave a Cmax ([2]; normal rats) of 346 ± 64 ng/mL, a CL/F ([2]; normal rats) of 15.2 mL/min/kg and an MRT last ([2]; normal rats) of 5.46 ± 0.48 h. For the same compound, the MRT inf ([2]; normal rats) was 8.17 ± 1.46 h, the Cmax [2, 6] was 279 ± 56.3 ng/mL and the Tmax [2, 6] was 0.26 ± 0.02 h. The half-life [2, 6] was 6.38 ± 1.96 h, the CL/F [2, 6] was 17.3 mL/min/kg and the MRT last [2, 6] was 6.78 ± 0.68 h. For the same compound, the MRT inf [2, 6] was 9.72 ± 2.61 h, the Cmax [2, 7] was 430 ± 98.5 ng/mL and the CL/F [2, 7] was 29.5 mL/min/kg. It also gave an MRT last [2, 7] of 4.52 ± 1.46 h, an MRT inf [2, 7] of 6.56 ± 2.64 h and a Cmax [2, 8] of 354 ± 83.8 ng/mL. For the same compound, the half-life [2, 8] was 6.61 ± 3.84 h, the CL/F [2, 8] was 37.1 mL/min/kg and the MRT last [2, 8] was 3.03 ± 0.38 h. The MRT inf [2, 8] was 4.1 ± 1.02 h, the “AUC0–t” value ([2]; normal rats) was 497.98 ± 34.72^∗ h∗ng/mL and the “AUC0–∞” value ([2]; normal rats) was 546.26 ± 38.80 h∗ng/mL. For the same compound, the “t 1/2” value ([2]; normal rats) was 8.17 ± 1.79 h, the “AUC0–t” value [2, 6] was 435.76 ± 59.78 h∗ng/mL and the “AUC0–∞” value [2, 6] was 489.67 ± 77.69 h∗ng/mL. The “AUC0–t” value [2, 7] was 263.13 ± 40.25^∗∗ h∗ng/mL, the “AUC0–∞” value [2, 7] was 284.31 ± 33.34^∗∗ h∗ng/mL and the “t 1/2” value [2, 7] was 5.41 ± 1.84 h. For the same compound, the “AUC0–t” value [2, 8] was 218.55 ± 23.29^∗∗ h∗ng/mL and the “AUC0–∞” value [2, 8] was 225.89 ± 25.03^∗∗ h∗ng/mL.
